By pIC50 is commonly meant the negative decadic logarithm of the IC50, by convention in mol/L.

Each structure is given as a SMILES string. pIC50: −log10 of the molar value. Entries after “also recorded” stand apart in the source; their conditions may differ. Where two headings read alike, the source gives them in different places. Starred links: 1 amine or outer side, 2 acyl side, 3 side chain; linkers in the order of their positions; H or OH if unused. Positions of bridges follow the written chain, without caps; N, C: chain ends. Non-standard residues stand in square brackets, D forms with d. Residues, ends and D or L forms follow the SMILES beside them. Chains are numbered I, II in the order given. Actinocin(9to1) = Cc1c2oc3c(C)ccc(C(=O)[*:1])c3nc-2c(C(=O)[*:2])c(N)c1=O; NMeV = CN[C@H](C(=O)O)C(C)C; Sar = CNCC(=O)O

Data set [1] has as its system P. falciparum Dd2 gametocytes. The experiment in a line: alamarBlue gametocyte viability assay, strain Dd2. It counts as cell-based, Plasmodium falciparum. The settings on record: for pIC50: Plasmodium falciparum. (In general: The colour change of resazurin is a common sign of viable cells or microbes.)
Procedure: (§1) Briefly, gametocyte cultures were set up at 0.1% parasitemia and on days 9–10 treated with 50 mM N-acetylglucosamine (NAG) to block further asexual growth. Stage III–V gametocytes were isolated by Percoll density gradient centrifugation on day 12 and returned to culture for 24 hrs before being used in the assay[9].
(§2) Briefly, 2.5 μl/well incomplete medium was dispensed into each well of 1,536-well plates using the Multidrop Combi followed by 23 nl compound transferring using the NX-TR Pintool (WAKO Scientific Solutions, San Diego, CA). Then, 2.5 μl/well of gametocytes was dispensed with a seeding density of 20,000 cells/well using the Multidrop Combi. The assay plates were incubated for 72 hrs at 37°C with 5% CO2.
The next data set deals with Dd2 asexual parasites. Also noted: method as in PMID 17116676. Particulars: cited from earlier work.
The test system of data set [2] is P. falciparum 3D7 gametocytes. Kind of data set: alamarBlue gametocyte viability assay, strain 3D7. It counts as cell-based, Plasmodium falciparum. Particulars: for pIC50: Plasmodium falciparum.
Procedure: Asexual parasites of P. falciparum strain 3D7 were cultured as described previously[55]. Briefly, gametocyte cultures were set up at 0.1% parasitemia and on days 9–10 treated with 50 mM N-acetylglucosamine (NAG) to block further asexual growth. Stage III–V gametocytes were isolated by Percoll density gradient centrifugation on day 12 and returned to culture for 24 hrs before being used in the assay[9]. […] Growth medium was made with Dulbecco's Modified Eagle Medium with 10% fetal bovine serum (FBS).
Compound screening experiments were performed as previously described[11]. Briefly, 2.5 μl/well incomplete medium was dispensed into each well of 1,536-well plates using the Multidrop Combi followed by 23 nl compound transferring using the NX-TR Pintool (WAKO Scientific Solutions, San Diego, CA). Then, 2.5 μl/well of gametocytes was dispensed with a seeding density of 20,000 cells/well using the Multidrop Combi. The assay plates were incubated for 72 hrs at 37°C with 5% CO2.
The primary screen data was analyzed using customized software developed internally[58]. IC50 values were calculated using the Prism software (Graphpad Software, Inc. San Diego, CA). Data were presented as means ± SEM with n = 3 independent experiments.
In data set [3] the test system is P. falciparum HB3 gametocytes. The experiment in a line: alamarBlue gametocyte viability assay, strain HB3. Particulars: Plasmodium falciparum. It counts as cell-based, Plasmodium falciparum.
Procedure: as §1, §2
The test system of data set [4] is HepG2 cells. The experiment in a line: cells. Particulars: Homo sapiens; for Emax: HepG2, read-out: % Max response.
Source text: (§3) Growth medium was made with Dulbecco's Modified Eagle Medium with 10% fetal bovine serum (FBS).
The test system of data set [5] is HepG2 cells. The settings on record: 11 concentrations, 1:3 dilution; Inactive = no significant activity at 46 µM.
Source text: as §3
A further data set has as its system mTOR. Also noted: method as in PMID 21322566. The settings on record: cited from earlier work.
Data set [6] has as its system P. falciparum asexual blood stage parasites. The experiment in a line: asexual parasite SYBR green assay. It counts as cell-based, Plasmodium falciparum. The settings on record: for pIC50: Plasmodium falciparum, SYBR green assay, read-out: IC50 against asexual parasites.
For data set [7], the system named is early stages (I and II) of P. falciparum gametocytes. More on the design: method as in PMID 6285190. Particulars: cited from earlier work.
The test system of data set [8] is P. falciparum liver stage. More on the design: method as in PMID 6285190. Particulars: read-out: IC50, P. falciparum development in the liver stage; cited from earlier work.
On the set-up of data set [9]: method as in PMID 21322566. Particulars: cited from earlier work.
The next data set relates to Plasmodium berghei ANKA. Kind of data set: mouse-mosquito transmission model, oocysts per mosquito midgut. It counts as in vivo, Plasmodium berghei in mice / Anopheles stephensi.
Data set [10] deals with P. falciparum asexual blood stage. More on the design: method as in PMID 6285190. The settings on record: cited from earlier work.
The mark [11] stands for this setting: DD2, read-out: Dd2-gametocytes IC50.
Where [12] appears, read: HB3, read-out: HB3-gametocytes IC50.
Setting [13] is: DD2, strain profiling, 11 concentrations, 1:3 dilution, three times, read-out: Dd2-gametocytes IC50.
The mark [14] stands for this setting: 3D7, P. falciparum 3D7 gametocytes, mean of at least 3 independent experiments, read-out: Gametocyte IC50.
[15] abbreviates: HB3, strain profiling, 11 concentrations, 1:3 dilution, three times, read-out: HB3-gametocytes IC50.

Procedure for Plasmodium berghei ANKA: Some mice were given two doses of drug three hrs apart to increase exposure time, but on a short enough time scale to prevent a concomitant decrease in asexual parasite from affecting the next cycle of gametocytes. […] The mosquito feed assay was performed 1.5 hrs after the final drug treatment as described in the Methods (Fig. 4A).
Plasmodium berghei ANKA (Pb) parasites were maintained by serial passage by intraperitoneal (i.p.) injection in outbred mice. All parasites used were serially passaged less than 5 times. Two days before feeding, female mice were infected i.p. with 200–400 μl whole blood from a Pb-infected mouse with >10% parasitemia, resulting in a high parasitemia in a short, predictable amount of time. On day 2 post infection, the mice were checked for exflagellation. If exflagellation was not observed, it was reassessed on day 3. […] Mice either received two doses 3 hrs apart or a single dose. The two dose treatment was done in triplicate, and the one dose treatment was done once. […] Parasitemia, gametocytemia, and presence of exflagellation were examined as described previously[57]. Mosquitoes were maintained on 5% (w/v) glucose at 19°C and 80% relative humidity. At day 10 post feeding, mosquito midguts were dissected and parasite infection was measured by staining mosquito midguts with 0.2% mercurochrome and counting the numbers of oocysts per midgut. Statistical significance was determined using Student's T-test when comparing two treatment groups and One-Way ANOVA when comparing three groups.

For `CCN(CC)CCCC(C)Nc1ccnc2cc(Cl)ccc12` (centres unmarked) [Chloroquine diphosphate], the “reduction of potency against Dd2 gametocytes compared to 3D7” value in [1] is 3.7 fold. In addition, the negative-log IC50 (pIC50) in data set [1] (DD2, read-out: Dd2-gametocytes IC50, strain profiling, 11 concentrations, 1:3 dilution, three times) is 6.03; in data set [2] (3D7, read-out: 3D7-gametocytes IC50) it was 6.60; in [3] (HB3, read-out: HB3-gametocytes IC50, strain profiling, 11 concentrations, 1:3 dilution, three times), 6.03. Moreover, the “fold less potent against Dd2 asexual parasites compared to 3D7” value in the data set with Dd2 asexual parasites is 10 fold.

`Cc1c2oc3c(C)ccc(C(=O)N[C@@H]4C(=O)N[C@H](C(C)C)C(=O)N5CCC[C@H]5C(=O)N(C)CC(=O)N(C)[C@@H](C(C)C)C(=O)O[C@@H]4C)c3nc-2c(C(=O)N[C@@H]2C(=O)N[C@H](C(C)C)C(=O)N3CCC[C@H]3C(=O)N(C)CC(=O)N(C)[C@@H](C(C)C)C(=O)O[C@@H]2C)c(N)c1=O` [Dactinomycin] (I: T[dV]P[Sar][NMeV] / II: T[dV]P[Sar][NMeV]; ester I:1-I:C, II:1-II:C; linker I:N-II:N via Actinocin(9to1)): the pIC50 was 7.48 in [1] (setting [11]); 7.82 in data set [2] (3D7, read-out: Gametocyte IC50); 7.72 in [3] (setting [12]). Also, the Emax in the data set on HepG2 cells [4] came out at 1%. For the same compound, the “IC50 in HepG2 cells” value in the data set with HepG2 cells [5] was “Inactive”.

Take `S=C(SSC(=S)N1CCCCC1)N1CCCCC1` [Dicyclopentamethylenethiuram disulfide]: the pIC50 in data set [1] (setting [11]) is 6.13; in data set [2] (P. falciparum 3D7 gametocytes, mean of at least 3 independent experiments, read-out: Gametocyte IC50), 6.56; in [3] (setting [12]) it was 6.13. The Emax in the data set on HepG2 cells [4] stood at 0%. The “IC50 in HepG2 cells” value in the data set on HepG2 cells [5] is given as “Inactive”.

As for `CN(C)c1ccc2nc3ccc(=[N+](C)C)cc-3sc2c1` [Methylene blue], the pIC50 in data set [1] (setting [13]) was 6.28; in data set [2] (setting [14]) it was 6.51; in data set [3] (setting [15]), 6.03. The Emax with HepG2 cells [4] was -20%. The “IC50 in HepG2 cells” value with HepG2 cells [5] is “Inactive”.

`O=C1C(=O)c2ncccc2-c2cccnc21` [Phanquinone]: the negative logarithm of the IC50 (pIC50) in data set [1] (setting [13]) was 7.28; in data set [2] (setting [14]), 6.96; in [3] (setting [15]) it was 7.43. Also, the Emax with HepG2 cells [4] amounted to 23%. In addition, the “IC50 in HepG2 cells” value in the data set with HepG2 cells [5] is “Inactive”.

Turning to `CN(C)C(=S)SSC(=S)N(C)C` [Thiram], the pIC50 in data set [1] (setting [11]) was 6.83; in data set [2] (setting [14]), 7.08; in data set [3] (setting [15]), 6.83. Also, the Emax in the data set on HepG2 cells [4] amounted to 23%. Besides, in the data set on HepG2 cells [5], the “IC50 in HepG2 cells” value is “Inactive”.

For `CCC(=O)N1CCN(c2ccc(-n3c(=O)ccc4cnc5ccc(-c6cnc7ccccc7c6)cc5c43)cc2C(F)(F)F)CC1` [Torin 1, 1-[4-[4-(1-Oxopropyl)-1-piperazinyl]-3-(trifluoromethyl)phenyl]-9-(3-quinolinyl)-benzo[h]-1,6-naphthyridin-2(1H)-one], the negative-log IC50 (pIC50) in data set [1] (setting [13]) was 5.28; in data set [2] (3D7, read-out: 3D7-gametocytes IC50, strain profiling, 11 concentrations, 1:3 dilution, three times), 5.18; in data set [2] (3D7, read-out: Gametocyte IC50, P. falciparum 3D7 gametocytes, mean of at least 3 independent experiments), 5.80; in data set [3] (setting [15]), […]; in the data set on mTOR it was […]; in data set [6], 6.67. In addition, the “fold less potent than Torin 2 against gametocytes” value in [2] is listed as […]. Further, in [6], the “times less potent than Torin 2 against asexual parasites” value is recorded as […].

Take `Nc1ccc(-c2ccc3ncc4ccc(=O)n(-c5cccc(C(F)(F)F)c5)c4c3c2)cn1` [Torin 2, 9-(6-Amino-3-pyridinyl)-1-[3-(trifluoromethyl)phenyl]-benzo[h]-1,6-naphthyridin-2(1H)-one]: the negative-log IC50 (pIC50) in [7] was 8.18; in [1] (setting [13]), 7.92; in data set [8], 8.96; in the data set on HepG2 cells [4] (HepG2, read-out: IC50 in HepG2 cells) it was 5.03; in data set [2] (setting [14]) it was 8.10; in data set [3] (setting [15]) it was 7.82. In addition, the values for the negative-log IC50 (pIC50) (in data set [10]; in the data set with mTOR; in [6]) were 8.85, […] and 8.56, respectively. For the same compound, in the data set on HepG2 cells [4], the Emax was -46%. Also, the oral bioavailability in data set [9] is reported as 51%. Moreover, the “exflagellation just prior to mosquito feed, drug- vs vehicle-treated mice” value with Plasmodium berghei ANKA (1.5 hrs after drug treatment) is “no difference; also recorded: equivalent to that of the vehicle-treated controls”. In addition, the “oocyst production in fed mosquitoes” value was “significantly reduced” in the data set with Plasmodium berghei ANKA (single dose 2 mg/kg i.v.); “almost completely eliminated; also recorded: nearly complete elimination” in the data set on Plasmodium berghei ANKA (single dose 4 mg/kg i.v., 4 mg/kg); “completely block; also recorded: completely prevented” with Plasmodium berghei ANKA (two 4 mg/kg doses i.v. 3 hrs apart, feed 1.5 hrs after final treatment).

(Values after article PMC3894558, “Chemical signatures and new drug targets for gametocytocidal drug development” (Scientific Reports, 2014).)
